Results: ChEMBL document CHEMBL1201862, “PubChem BioAssay data set” (2004)
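Following 48 hours of exposure in 96-well plates, responses at five concentrations were used to interpolate endpoints linearly. Here, GI50 denotes the concentration required for 50% inhibition of growth.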 Activity calls are given as the source filed them. No stated cut-off is given here; in the data, active = GI50 up to about 1.1 µM and inactive = higher.

Legend:
Experiment in all cases: NCI tumour cell line growth inhibition, 48 h
786-0 = test system: 786-0
A498 = test system: A498
A549 = test system: A549
ACHN = test system: ACHN
BT-549 = test system: BT-549
CAKI-1 = test system: CAKI-1
CCRF-CEM = test system: CCRF-CEM
COLO 205 = test system: COLO 205
DU-145 = test system: DU-145
EKVX = test system: EKVX
HCC 2998 = test system: HCC 2998
HCT-116 = test system: HCT-116
HCT-15 = test system: HCT-15
HL-60 = test system: HL-60
HOP-62 = test system: HOP-62
HOP-92 = test system: HOP-92
HT-29 = test system: HT-29
Hs-578T = test system: Hs-578T
IGROV-1 = test system: IGROV-1
K562 = test system: K562
KM12 = test system: KM12
LOX IMVI = test system: LOX IMVI
M14 = test system: M14
MCF7 = test system: MCF7
MDA-MB-231 = test system: MDA-MB-231
MDA-MB-435 = test system: MDA-MB-435
MDA-N = test system: MDA-N
MOLT-4 = test system: MOLT-4
Malme-3M = test system: Malme-3M
NCI-H226 = test system: NCI-H226
NCI-H23 = test system: NCI-H23
NCI-H460 = test system: NCI-H460
NCI-H522 = test system: NCI-H522
NCI/ADR-RES = test system: NCI/ADR-RES
OVCAR-3 = test system: OVCAR-3
OVCAR-4 = test system: OVCAR-4
OVCAR-5 = test system: OVCAR-5
OVCAR-8 = test system: OVCAR-8
PC-3 = test system: PC-3
RPMI-8226 = test system: RPMI-8226
RXF 393 = test system: RXF 393
SF-268 = test system: SF-268
SF-295 = test system: SF-295
SF-539 = test system: SF-539
SK-MEL-2 = test system: SK-MEL-2
SK-MEL-5 = test system: SK-MEL-5
SK-OV-3 = test system: SK-OV-3
SN12C = test system: SN12C
SNB-19 = test system: SNB-19
SNB-75 = test system: SNB-75
SR = test system: SR
SW-620 = test system: SW-620
T47D = test system: T47D
TK-10 = test system: TK-10
U-251 = test system: U-251
UACC-257 = test system: UACC-257
UACC-62 = test system: UACC-62
UO-31 = test system: UO-31
SK-MEL-28 = test system: SK-MEL-28

## CCc1nnc2sc(-c3ccc(-c4ccccc4[N+](=O)[O-])o3)nn12
786-0
  GI50: 54.8 µM (inactive)
A498
  GI50: 54 µM (inactive)
A549
  GI50: 36.5 µM (inactive)
ACHN
  GI50: 62.2 µM (inactive)
BT-549
  GI50: 36.6 µM (inactive)
CAKI-1
  GI50: 66.4 µM (inactive)
CCRF-CEM
  GI50: 26.9 µM (inactive)
COLO 205
  GI50: 34.9 µM (inactive)
DU-145
  GI50: 66.2 µM (inactive)
EKVX
  GI50: 21.6 µM (inactive)
HCC 2998
  GI50: 50.1 µM (inactive)
HCT-116
  GI50: 37.3 µM (inactive)
HCT-15
  GI50: 30.1 µM
HL-60
  GI50: 24 µM (inactive)
HOP-62
  GI50: 87.9 µM (inactive)
HOP-92
  GI50: 84.7 µM (inactive)
HT-29
  GI50: 35.6 µM (inactive)
Hs-578T
  GI50: 54.3 µM (inactive)
IGROV-1
  GI50: 47.9 µM (inactive)
K562
  GI50: 27.7 µM (inactive)
KM12
  GI50: 30.8 µM (inactive)
LOX IMVI
  GI50: 36.2 µM (inactive)
M14
  GI50: 37.6 µM (inactive)
MCF7
  GI50: 19.7 µM (inactive)
MDA-MB-231
  GI50: 53.1 µM (inactive)
MDA-MB-435
  GI50: 20.3 µM (inactive)
MDA-N
  GI50: 19.9 µM (inactive)
MOLT-4
  GI50: 19.5 µM (inactive)
Malme-3M
  GI50: > 100 µM (inactive)
NCI-H226
  GI50: 14.4 µM (inactive)
NCI-H23
  GI50: 32.9 µM (inactive)
NCI-H460
  GI50: 31 µM (inactive)
NCI-H522
  GI50: 37.4 µM (inactive)
NCI/ADR-RES
  GI50: 27 µM (inactive)
OVCAR-3
  GI50: 32.1 µM (inactive)
OVCAR-4
  GI50: 53.1 µM (inactive)
OVCAR-5
  GI50: 62.2 µM (inactive)
OVCAR-8
  GI50: 50.7 µM (inactive)
PC-3
  GI50: 42.9 µM (inactive)
RPMI-8226
  GI50: 20.7 µM (inactive)
RXF 393
  GI50: 57.9 µM (inactive)
SF-268
  GI50: 49.1 µM (inactive)
SF-295
  GI50: 32.6 µM (inactive)
SF-539
  GI50: 29.7 µM (inactive)
SK-MEL-2
  GI50: 28.1 µM (inactive)
SK-MEL-5
  GI50: 27.7 µM (inactive)
SK-OV-3
  GI50: 40 µM (inactive)
SN12C
  GI50: 53 µM (inactive)
SNB-19
  GI50: 75.3 µM (inactive)
SNB-75
  GI50: > 100 µM (inactive)
SR
  GI50: 20.1 µM (inactive)
SW-620
  GI50: 34 µM (inactive)
T47D
  GI50: 36.3 µM (inactive)
TK-10
  GI50: 75.7 µM (inactive)
U-251
  GI50: 40.6 µM (inactive)
UACC-257
  GI50: 61.7 µM (inactive)
UACC-62
  GI50: 45.7 µM (inactive)
UO-31
  GI50: 41.9 µM (inactive)

## CC(C)CNC(=O)c1c(NC(=O)c2ccccc2)sc2[nH]c(=O)n(-c3ccccc3)c(=O)c12
786-0
  GI50: 16.8 µM (inactive)
A498
  GI50: 27.5 µM (inactive)
A549
  GI50: > 100 µM (inactive)
ACHN
  GI50: 13.8 µM (inactive)
BT-549
  GI50: 26.4 µM (inactive)
CAKI-1
  GI50: > 42.1 µM (inactive)
CCRF-CEM
  GI50: 40.5 µM (inactive)
COLO 205
  GI50: > 100 µM (inactive)
DU-145
  GI50: > 100 µM (inactive)
EKVX
  GI50: 70.6 µM (inactive)
HCC 2998
  GI50: > 100 µM (inactive)
HCT-116
  GI50: > 86.3 µM (inactive)
HCT-15
  GI50: > 100 µM
HL-60
  GI50: 68.9 µM (inactive)
HOP-62
  GI50: 15.3 µM (inactive)
HOP-92
  GI50: 5.09 µM (inactive)
HT-29
  GI50: > 100 µM (inactive)
Hs-578T
  GI50: 14.3 µM (inactive)
IGROV-1
  GI50: 74.3 µM (inactive)
K562
  GI50: 31 µM (inactive)
KM12
  GI50: > 100 µM (inactive)
LOX IMVI
  GI50: > 100 µM (inactive)
M14
  GI50: 91.2 µM (inactive)
MCF7
  GI50: > 100 µM (inactive)
MDA-MB-231
  GI50: 23.2 µM (inactive)
MDA-MB-435
  GI50: > 100 µM (inactive)
MDA-N
  GI50: > 100 µM (inactive)
MOLT-4
  GI50: 51.3 µM (inactive)
Malme-3M
  GI50: > 82.8 µM (inactive)
NCI-H226
  GI50: > 82.6 µM (inactive)
NCI-H23
  GI50: 80.5 µM (inactive)
NCI-H460
  GI50: > 100 µM (inactive)
NCI-H522
  GI50: 43.7 µM (inactive)
NCI/ADR-RES
  GI50: > 97.5 µM (inactive)
OVCAR-3
  GI50: > 100 µM (inactive)
OVCAR-4
  GI50: > 64 µM (inactive)
OVCAR-5
  GI50: > 100 µM (inactive)
OVCAR-8
  GI50: > 100 µM (inactive)
PC-3
  GI50: > 100 µM (inactive)
RPMI-8226
  GI50: > 100 µM (inactive)
RXF 393
  GI50: 16.6 µM (inactive)
SF-268
  GI50: 37.1 µM (inactive)
SF-295
  GI50: 19.6 µM (inactive)
SF-539
  GI50: 46 µM (inactive)
SK-MEL-28
  GI50: > 100 µM (inactive)
SK-MEL-2
  GI50: 27.5 µM (inactive)
SK-MEL-5
  GI50: > 93.1 µM (inactive)
SK-OV-3
  GI50: 23.8 µM (inactive)
SN12C
  GI50: > 100 µM (inactive)
SNB-19
  GI50: 24 µM (inactive)
SNB-75
  GI50: 17.8 µM (inactive)
SR
  GI50: 49.4 µM (inactive)
SW-620
  GI50: > 100 µM (inactive)
T47D
  GI50: 89.3 µM (inactive)
TK-10
  GI50: 37.9 µM (inactive)
U-251
  GI50: 31.3 µM (inactive)
UACC-257
  GI50: > 100 µM (inactive)
UACC-62
  GI50: 64.3 µM (inactive)
UO-31
  GI50: > 71.4 µM (inactive)

## COc1ccccc1/[N+]([O-])=C/c1ccccc1OC(=S)S
786-0
  GI50: 26.5 µM (inactive)
A498
  GI50: 32.4 µM (inactive)
A549
  GI50: > 100 µM (inactive)
ACHN
  GI50: 49.3 µM (inactive)
BT-549
  GI50: 25.9 µM (inactive)
CAKI-1
  GI50: 58.9 µM (inactive)
COLO 205
  GI50: 27.4 µM (inactive)
DU-145
  GI50: 70.5 µM (inactive)
EKVX
  GI50: 30.4 µM (inactive)
HCC 2998
  GI50: 14.7 µM (inactive)
HCT-116
  GI50: 42 µM (inactive)
HCT-15
  GI50: 23 µM
HL-60
  GI50: 25.8 µM (inactive)
HOP-92
  GI50: 19 µM (inactive)
HT-29
  GI50: > 100 µM (inactive)
Hs-578T
  GI50: 73.6 µM (inactive)
IGROV-1
  GI50: 19.6 µM (inactive)
K562
  GI50: 29.5 µM (inactive)
KM12
  GI50: 47.6 µM (inactive)
LOX IMVI
  GI50: 28.1 µM (inactive)
M14
  GI50: 41.1 µM (inactive)
MCF7
  GI50: 23.7 µM (inactive)
MDA-MB-231
  GI50: 30.9 µM (inactive)
MDA-MB-435
  GI50: 16.7 µM (inactive)
MDA-N
  GI50: 17.7 µM (inactive)
MOLT-4
  GI50: 27.5 µM (inactive)
Malme-3M
  GI50: 96.4 µM (inactive)
NCI-H226
  GI50: 28.8 µM (inactive)
NCI-H23
  GI50: 28.2 µM (inactive)
NCI-H460
  GI50: 64.9 µM (inactive)
NCI-H522
  GI50: 22.3 µM (inactive)
NCI/ADR-RES
  GI50: 30.6 µM (inactive)
OVCAR-3
  GI50: 26.2 µM (inactive)
OVCAR-4
  GI50: 28.3 µM (inactive)
OVCAR-5
  GI50: 96.2 µM (inactive)
OVCAR-8
  GI50: 21.7 µM (inactive)
PC-3
  GI50: 34 µM (inactive)
RPMI-8226
  GI50: 21.8 µM (inactive)
RXF 393
  GI50: 33.7 µM (inactive)
SF-268
  GI50: 33.7 µM (inactive)
SF-295
  GI50: 32.2 µM (inactive)
SF-539
  GI50: 57.1 µM (inactive)
SK-MEL-28
  GI50: > 100 µM (inactive)
SK-MEL-2
  GI50: 21.5 µM (inactive)
SK-MEL-5
  GI50: 34.2 µM (inactive)
SK-OV-3
  GI50: > 100 µM (inactive)
SN12C
  GI50: 88.1 µM (inactive)
SNB-19
  GI50: 99.3 µM (inactive)
SNB-75
  GI50: 25.8 µM (inactive)
SR
  GI50: 31.5 µM (inactive)
SW-620
  GI50: 44.5 µM (inactive)
T47D
  GI50: 17.6 µM (inactive)
TK-10
  GI50: > 100 µM (inactive)
U-251
  GI50: 41.7 µM (inactive)
UACC-257
  GI50: 28.1 µM (inactive)
UACC-62
  GI50: 32.9 µM (inactive)
UO-31
  GI50: 31 µM (inactive)
